Assay results taken from paper PMC10004634 (PLOS ONE, 2023).

Legend:
TMD8 cells [1] = experiment: Western blot of IRF4, BCL6, c-MYC protein expression; assay type: cell-based, human; settings: 24 h, 1 μM
Protocol: (§1) After culturing, cells were harvested and lysed with cell lysis buffer (Cell Signaling Technology, Inc.) containing 1 mM AEBSF (Calbiochem, #101500). As a positive control of BTK autophosphorylation for western blot analysis, TMD8 cells were treated with hydrogen peroxide (H2O2; final concentration: 6 mM) for 10 min, harvested as a control sample, and then lysed with the cell lysis buffer.
Each mixture of cells and cell lysis buffer was incubated on ice for 5 min, then centrifuged at 13400 × g and 4°C for 10 min. Total lysates were loaded on 4%–12% SDS-PAGE (Bio-Rad) and transferred to a polyvinylidene difluoride (PVDF) membrane (Immobilon-P Transfer Membrane, Millipore Corporation). The blot was incubated in Tris-buffered saline with Tween 20 (TBS-T, Cell Signaling Technology, Inc.) containing 2 w/v% ECL Advance Blocking Agent (GE Healthcare Life Sciences, b) for 1 h at room temperature. The blocked PVDF membranes were immersed in TBS-T and washed three times with shaking at room temperature for 10 min. The membrane was incubated with primary antibody in TBS-T containing 2 w/v% ECL Advance Blocking Agent with gentle agitation overnight at 5°C in a cold storage room or for 1 h at room temperature. […] Lumino-image analyzer (LAS-1000 Plus system, Fuji Photo Film Co., Ltd.) and Image Reader LAS-1000 Lite version 1.3 (Fuji Photo Film Co., Ltd.) were used to visualize bands. […]

[2] = tested on: other BioMAP systems such as the T-cell and fibroblast activation systems; experiment: BioMAP Diversity PLUS profiling, other evaluation systems; assay type: cell-based, human; settings: 120, 370, 1100, 3300 nM
Protocol: In brief, cultures with one or more primary cell types from healthy human donors were treated with sets of stimulators specific to the cell subsets, and the optimized biomarker readouts for each system were measured by ELISA and other techniques, as listed in S1 Table. The assays included positive and negative controls as well as vehicle control. Results are presented as the log-transformed ratio of biomarker readouts for tirabrutinib-treated samples to vehicle controls.

TMD8 cells [3] = experiment: Western blot of BTK downstream signaling (p-PLCγ2, p-ERK1/2, p-AKT, p-IκBα); assay type: cell-based, human
Protocol: as §1
(§2) Each mixture of cells and cell lysis buffer was incubated on ice for 5 min, then centrifuged at 13400 × g and 4°C for 10 min. Total lysates were loaded on 4%–12% SDS-PAGE (Bio-Rad) and transferred to a polyvinylidene difluoride (PVDF) membrane (Immobilon-P Transfer Membrane, Millipore Corporation). The blot was incubated in Tris-buffered saline with Tween 20 (TBS-T, Cell Signaling Technology, Inc.) containing 2 w/v% ECL Advance Blocking Agent (GE Healthcare Life Sciences, b) for 1 h at room temperature. The blocked PVDF membranes were immersed in TBS-T and washed three times with shaking at room temperature for 10 min. The membrane was incubated with primary antibody in TBS-T containing 2 w/v% ECL Advance Blocking Agent with gentle agitation overnight at 5°C in a cold storage room or for 1 h at room temperature. Rabbit monoclonal anti- phosphorylated BTK (Tyr-223) antibody (p-BTK; Novus Biologicals, #NB100-79907), rabbit monoclonal BTK antibody (Cell Signaling Technology, Inc., #3533), rabbit polyclonal phosphorylated AKT (Ser-473) antibody (p-AKT; Cell Signaling Technology, Inc., #9271), rabbit monoclonal AKT (pan) (C67E7) antibody (Cell Signaling Technology, Inc., #4691), rabbit polyclonal phosphorylated p44/42 MAPK (ERK1/2) (Thr-202/Tyr-204) antibody (p-ERK1/2; Cell Signaling Technology, Inc., #9101), rabbit monoclonal p44/42 MAPK (ERK1/2) (137F5) antibody (Cell Signaling Technology, Inc., #4695), rabbit monoclonal phosphorylated PLCγ2 (Tyr-759) (E9E9Y) antibody (p-PLCγ2; Cell Signaling Technology, Inc., #50535), rabbit monoclonal PLCγ2 (E5U4T) antibody (Cell Signaling Technology, Inc., #55512), mouse monoclonal phosphorylated IκBα (Ser-32/36) (5A5) antibody (p-IκBα; Cell Signaling Technology, Inc., #9246), rabbit monoclonal IκBα (44D4) antibody (Cell Signaling Technology, Inc., #4812), rabbit polyclonal phosphorylated PKCβ (phospho-Thr-641) antibody (p-PKCβ; Signalway Antibody LLC, #11172), rabbit monoclonal IRF4 (D9P5H) antibody (Cell Signaling Technology, Inc., #15106), rabbit monoclonal BCL6 (D65C10) antibody (Cell Signaling Technology, Inc., #5650), rabbit monoclonal c-MYC (D84C12) antibody (Cell Signaling Technology, Inc., #5605), and rabbit monoclonal GAPDH (14C10) antibody (Cell Signaling Technology, Inc., #2118) were used. The PVDF membranes were immersed in TBS-T and washed three times with shaking at room temperature for 10 min, then incubated with secondary antibody with shaking for 1 h at room temperature. The secondary antibody used was anti-rabbit-IgG horseradish peroxidase (HRP)-linked antibody (Cell Signaling Technology, #7074) or goat anti-rabbit immunoglobulins/HRP (Dako, P0448). The PVDF membranes were washed three times with shaking at room temperature for 10 min and were treated with ECL^TM Advance Western Blotting Detection Kit (GE Healthcare Life Sciences, #RPN2135) for chemiluminescent detection according to the manufacturer’s instruction. Lumino-image analyzer (LAS-1000 Plus system, Fuji Photo Film Co., Ltd.) and Image Reader LAS-1000 Lite version 1.3 (Fuji Photo Film Co., Ltd.) were used to visualize bands. The densitometry analysis described the ratio of phosphorylated to total BTK protein. […] 5.04 (GraphPad Software, Inc.).

U-2932 cells = experiment: as above; assay type: cell-based, human
Protocol: as §1, §2

MARK3 = MARK3 (Homo sapiens, UniProt P27448); experiment: biochemical; design: KINOMEscan scanMAX competition binding, DNA-tagged kinases, qPCR read-out, percent control at 300 nM; settings: read-out: Percent control / Ibrutinib
Sequence of MARK3 (P27448 whole entry): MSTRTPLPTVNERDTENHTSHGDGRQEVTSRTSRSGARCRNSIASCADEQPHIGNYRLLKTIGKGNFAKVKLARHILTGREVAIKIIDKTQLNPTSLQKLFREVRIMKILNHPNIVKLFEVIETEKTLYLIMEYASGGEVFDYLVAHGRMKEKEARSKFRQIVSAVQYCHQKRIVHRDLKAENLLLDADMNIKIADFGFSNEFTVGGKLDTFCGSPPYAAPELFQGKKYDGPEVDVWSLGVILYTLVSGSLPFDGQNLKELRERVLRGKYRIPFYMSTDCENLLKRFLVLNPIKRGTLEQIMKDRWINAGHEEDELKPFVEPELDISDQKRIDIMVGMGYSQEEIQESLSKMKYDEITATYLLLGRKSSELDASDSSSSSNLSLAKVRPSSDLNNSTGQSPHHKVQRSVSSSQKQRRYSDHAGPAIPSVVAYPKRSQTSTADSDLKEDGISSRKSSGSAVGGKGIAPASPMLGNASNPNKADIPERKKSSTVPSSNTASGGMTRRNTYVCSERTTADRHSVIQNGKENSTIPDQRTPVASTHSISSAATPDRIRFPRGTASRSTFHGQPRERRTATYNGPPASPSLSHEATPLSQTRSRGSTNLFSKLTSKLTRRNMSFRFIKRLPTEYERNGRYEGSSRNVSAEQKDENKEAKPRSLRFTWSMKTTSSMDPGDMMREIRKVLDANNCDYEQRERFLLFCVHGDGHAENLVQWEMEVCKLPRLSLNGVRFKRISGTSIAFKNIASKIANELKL

AKT1 = AKT1 (Homo sapiens, UniProt P31749); experiment: biochemical; design: KINOMEscan scanMAX competition binding, DNA-tagged kinases, qPCR read-out, percent control at 300 nM; settings: read-out: Percent control / Zanubrutinib
Sequence of AKT1 (P31749 whole entry): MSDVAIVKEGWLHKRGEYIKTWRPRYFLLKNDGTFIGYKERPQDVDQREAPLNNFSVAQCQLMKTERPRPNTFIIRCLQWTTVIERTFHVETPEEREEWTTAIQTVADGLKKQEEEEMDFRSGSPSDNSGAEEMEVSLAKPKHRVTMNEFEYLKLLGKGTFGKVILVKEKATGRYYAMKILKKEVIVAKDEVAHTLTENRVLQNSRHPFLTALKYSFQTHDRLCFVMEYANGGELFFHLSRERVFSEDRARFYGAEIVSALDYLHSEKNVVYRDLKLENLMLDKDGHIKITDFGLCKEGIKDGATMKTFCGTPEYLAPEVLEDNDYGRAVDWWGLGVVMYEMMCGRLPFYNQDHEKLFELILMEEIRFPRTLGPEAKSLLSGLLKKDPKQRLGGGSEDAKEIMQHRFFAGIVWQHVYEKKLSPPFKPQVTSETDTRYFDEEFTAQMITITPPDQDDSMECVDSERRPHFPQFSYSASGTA

MEK4 = target: T1, MEK4 (Homo sapiens, UniProt P45985); experiment: biochemical; design: KINOMEscan scanMAX competition binding, DNA-tagged kinases, qPCR read-out, percent control at 300 nM; settings: read-out: Percent control / Zanubrutinib
T1 construct: gene MAP2K4
T1 sequence (P45985 whole entry): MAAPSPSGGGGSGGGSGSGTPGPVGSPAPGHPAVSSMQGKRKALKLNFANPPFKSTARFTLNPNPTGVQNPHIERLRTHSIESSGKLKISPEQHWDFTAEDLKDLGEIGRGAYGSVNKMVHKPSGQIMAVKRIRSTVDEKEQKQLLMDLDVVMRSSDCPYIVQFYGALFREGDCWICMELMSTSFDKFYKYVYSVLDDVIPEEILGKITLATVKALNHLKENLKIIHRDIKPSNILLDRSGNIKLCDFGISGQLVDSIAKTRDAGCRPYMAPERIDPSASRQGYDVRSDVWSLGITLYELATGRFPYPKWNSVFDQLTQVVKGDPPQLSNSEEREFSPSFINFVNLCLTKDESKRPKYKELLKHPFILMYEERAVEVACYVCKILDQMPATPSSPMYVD

SIK = target: T2, SIK (Homo sapiens, UniProt P57059); experiment: biochemical; design: KINOMEscan scanMAX competition binding, DNA-tagged kinases, qPCR read-out, percent control at 300 nM; settings: read-out: Percent control / Zanubrutinib
T2 construct: gene SIK1
T2 sequence (P57059 whole entry): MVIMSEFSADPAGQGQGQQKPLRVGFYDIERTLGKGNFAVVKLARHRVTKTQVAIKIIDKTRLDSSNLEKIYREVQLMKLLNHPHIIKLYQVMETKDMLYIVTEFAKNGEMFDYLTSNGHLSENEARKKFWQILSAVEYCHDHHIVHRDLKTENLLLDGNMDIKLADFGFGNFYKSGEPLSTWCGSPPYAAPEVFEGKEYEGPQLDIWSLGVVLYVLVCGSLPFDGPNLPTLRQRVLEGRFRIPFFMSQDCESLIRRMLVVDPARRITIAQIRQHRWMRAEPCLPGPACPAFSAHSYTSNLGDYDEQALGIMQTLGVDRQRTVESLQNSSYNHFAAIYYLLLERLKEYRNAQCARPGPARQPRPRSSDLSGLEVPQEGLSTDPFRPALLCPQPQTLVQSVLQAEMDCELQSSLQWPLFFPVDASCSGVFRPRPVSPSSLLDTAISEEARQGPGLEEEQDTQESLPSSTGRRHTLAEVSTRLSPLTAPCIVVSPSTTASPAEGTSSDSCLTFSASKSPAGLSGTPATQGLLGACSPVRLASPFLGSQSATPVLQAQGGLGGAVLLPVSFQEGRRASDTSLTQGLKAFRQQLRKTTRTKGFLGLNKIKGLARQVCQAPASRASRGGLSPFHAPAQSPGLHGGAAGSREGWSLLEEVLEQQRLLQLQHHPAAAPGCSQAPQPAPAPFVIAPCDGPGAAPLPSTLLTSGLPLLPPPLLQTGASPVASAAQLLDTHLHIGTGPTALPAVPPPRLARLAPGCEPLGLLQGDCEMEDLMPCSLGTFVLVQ

CDK5 = CDK5 (Homo sapiens, UniProt Q00535); experiment: biochemical; design: KINOMEscan scanMAX competition binding, DNA-tagged kinases, qPCR read-out, percent control at 300 nM; settings: read-out: Percent control / Zanubrutinib
Sequence of CDK5 (Q00535 whole entry): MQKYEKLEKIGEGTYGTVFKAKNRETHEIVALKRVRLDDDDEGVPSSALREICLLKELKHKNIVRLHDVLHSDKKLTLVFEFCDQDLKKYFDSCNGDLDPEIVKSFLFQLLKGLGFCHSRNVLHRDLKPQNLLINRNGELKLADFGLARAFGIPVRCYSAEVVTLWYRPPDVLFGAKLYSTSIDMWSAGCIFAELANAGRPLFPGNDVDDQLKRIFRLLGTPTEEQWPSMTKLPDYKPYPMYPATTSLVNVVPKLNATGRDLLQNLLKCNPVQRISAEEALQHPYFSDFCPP

HIPK2 = HIPK2 (Homo sapiens, UniProt Q9H2X6); experiment: biochemical; design: KINOMEscan scanMAX competition binding, DNA-tagged kinases, qPCR read-out, percent control at 300 nM; settings: read-out: Percent control / Zanubrutinib
Sequence of HIPK2 (Q9H2X6 whole entry): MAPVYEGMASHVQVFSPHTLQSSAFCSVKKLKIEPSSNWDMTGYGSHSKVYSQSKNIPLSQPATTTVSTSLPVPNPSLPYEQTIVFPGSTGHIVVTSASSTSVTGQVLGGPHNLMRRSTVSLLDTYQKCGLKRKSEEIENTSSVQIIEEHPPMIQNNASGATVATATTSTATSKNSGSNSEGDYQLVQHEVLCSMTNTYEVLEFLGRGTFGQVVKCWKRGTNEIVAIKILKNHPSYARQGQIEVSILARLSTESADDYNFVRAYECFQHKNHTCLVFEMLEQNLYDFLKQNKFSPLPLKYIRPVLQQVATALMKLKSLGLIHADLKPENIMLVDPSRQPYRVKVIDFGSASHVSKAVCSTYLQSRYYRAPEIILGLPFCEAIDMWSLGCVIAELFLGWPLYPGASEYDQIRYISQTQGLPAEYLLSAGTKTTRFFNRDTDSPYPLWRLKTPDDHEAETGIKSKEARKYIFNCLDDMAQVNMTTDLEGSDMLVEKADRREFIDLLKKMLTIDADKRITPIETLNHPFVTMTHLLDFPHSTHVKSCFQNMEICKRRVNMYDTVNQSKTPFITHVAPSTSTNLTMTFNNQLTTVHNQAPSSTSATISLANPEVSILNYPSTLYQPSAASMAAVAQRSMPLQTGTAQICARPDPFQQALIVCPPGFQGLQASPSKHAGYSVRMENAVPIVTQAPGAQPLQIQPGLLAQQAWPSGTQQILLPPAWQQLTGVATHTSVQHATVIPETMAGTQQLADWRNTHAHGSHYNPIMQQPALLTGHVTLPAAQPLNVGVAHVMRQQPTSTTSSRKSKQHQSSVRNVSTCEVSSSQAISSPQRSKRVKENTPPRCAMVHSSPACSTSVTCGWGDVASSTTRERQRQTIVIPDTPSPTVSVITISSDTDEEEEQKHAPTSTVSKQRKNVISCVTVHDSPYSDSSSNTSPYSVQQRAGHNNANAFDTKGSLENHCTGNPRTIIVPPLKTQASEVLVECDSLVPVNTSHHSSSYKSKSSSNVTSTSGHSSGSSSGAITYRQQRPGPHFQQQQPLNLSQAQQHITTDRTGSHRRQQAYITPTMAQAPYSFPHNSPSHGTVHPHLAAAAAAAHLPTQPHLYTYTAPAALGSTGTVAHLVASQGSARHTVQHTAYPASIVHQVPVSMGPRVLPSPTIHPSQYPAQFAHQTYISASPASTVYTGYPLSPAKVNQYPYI

SIK2 = SIK2 (Homo sapiens, UniProt Q9H0K1); experiment: biochemical; design: KINOMEscan scanMAX competition binding, DNA-tagged kinases, qPCR read-out, percent control at 300 nM; settings: read-out: Percent control / Acalabrutinib
Sequence of SIK2 (Q9H0K1 whole entry): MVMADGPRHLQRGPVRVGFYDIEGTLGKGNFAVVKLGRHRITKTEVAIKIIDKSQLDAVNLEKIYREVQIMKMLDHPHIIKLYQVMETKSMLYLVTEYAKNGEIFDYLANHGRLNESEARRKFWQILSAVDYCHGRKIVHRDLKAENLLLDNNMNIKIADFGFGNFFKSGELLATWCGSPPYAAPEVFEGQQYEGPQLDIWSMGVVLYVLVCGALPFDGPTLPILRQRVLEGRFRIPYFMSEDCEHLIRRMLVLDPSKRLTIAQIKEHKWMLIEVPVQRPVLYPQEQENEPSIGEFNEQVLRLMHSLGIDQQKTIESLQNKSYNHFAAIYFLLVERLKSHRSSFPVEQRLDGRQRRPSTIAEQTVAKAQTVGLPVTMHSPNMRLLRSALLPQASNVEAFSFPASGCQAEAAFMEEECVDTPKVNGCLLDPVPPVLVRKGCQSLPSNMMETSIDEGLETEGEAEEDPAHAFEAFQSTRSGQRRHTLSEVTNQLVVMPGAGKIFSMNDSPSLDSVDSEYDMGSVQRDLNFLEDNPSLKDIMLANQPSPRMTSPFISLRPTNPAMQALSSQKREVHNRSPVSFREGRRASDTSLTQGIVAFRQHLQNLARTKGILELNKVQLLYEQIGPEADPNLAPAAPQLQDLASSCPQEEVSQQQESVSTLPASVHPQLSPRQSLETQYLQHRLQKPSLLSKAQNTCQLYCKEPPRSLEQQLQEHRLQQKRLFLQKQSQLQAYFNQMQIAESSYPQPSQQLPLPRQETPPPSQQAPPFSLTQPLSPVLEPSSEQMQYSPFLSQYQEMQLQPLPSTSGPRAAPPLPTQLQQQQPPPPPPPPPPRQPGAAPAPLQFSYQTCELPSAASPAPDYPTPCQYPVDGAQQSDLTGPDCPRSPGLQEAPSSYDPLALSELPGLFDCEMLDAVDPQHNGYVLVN

How did the BCL6 protein expression (TMD8 cells [1]) turn out when CC#CC(=O)N1CC[C@@H](n2c(=O)n(-c3ccc(Oc4ccccc4)cc3)c3c(N)ncnc32)C1 [Tirabrutinib] was run?
The BCL6 protein expression was “not changed”.

What about the IRF4 protein expression (TMD8 cells [1]) of the same compound?
Its IRF4 protein expression is “downregulation”.

What about the MYC protein expression (TMD8 cells [1]) of the same compound?
The MYC protein expression was “downregulation”.

And the “effect in other BioMAP evaluation systems” value [2]?
The value was “no significant effect”.

And the “p-AKT at Ser-473” value (TMD8 cells [3]; 1 μM)?
Its value is “inhibition”.

What about the “p-IκBα at S32/36” value (TMD8 cells [3]; 1 μM, 4 h) of the same compound?
The value was “inhibited”.

And the p-ERK (TMD8 cells [3]; 1 h, 10-300 nM)?
Its p-ERK is “inhibited”.

What about the “phosphorylation of PLCγ2 at Tyr-759” value (TMD8 cells [3]; 1 h, 10-300 nM) of the same compound?
Its value is “inhibited”.

What about the “AKT signaling (p-AKT Ser-473)” value (U-2932 cells; 1 μM) of the same compound?
The value was “did not indicate inhibition”.

What about the “p-IκBα at S32/36” value (U-2932 cells; 1 μM, 4 h) of the same compound?
Its value is “inhibited”.

What about the p-ERK (U-2932 cells; 1 h, 10-300 nM) of the same compound?
Its p-ERK is “not clear”.

What about the “phosphorylation of PLCγ2 at Tyr-759” value (U-2932 cells; 1 h, 10-300 nM) of the same compound?
The value was “inhibited”.

What about the p-ERK (U-2932 cells; 4 h, 10-300 nM) of the same compound?
The p-ERK was “significant inhibition”.

Which remaining binding at 0.3 µM (MARK3) does the source give for C=CC(=O)N1CCC[C@@H](n2nc(-c3ccc(Oc4ccccc4)cc3)c3c(N)ncnc32)C1 [Ibrutinib] here?
Its remaining binding at 0.3 µM is 99%.

Which results are given for C=CC(=O)N1CCC([C@@H]2CCNc3c(C(N)=O)c(-c4ccc(Oc5ccccc5)cc4)nn32)CC1 [Zanubrutinib]?
remaining binding at 0.3 µM (AKT1): 100%; remaining binding at 0.3 µM (MEK4): 93%; remaining binding at 0.3 µM (SIK): 100%; remaining binding at 0.3 µM (CDK5): 98%; remaining binding at 0.3 µM (HIPK2): 87%

CC#CC(=O)N1CCC[C@H]1c1nc(-c2ccc(C(=O)Nc3ccccn3)cc2)c2c(N)nccn12 [Acalabrutinib] was tested. Which remaining binding at 0.3 µM (SIK2) did it give?
Its remaining binding at 0.3 µM is 90%.
